Experimental data published in patent publication US20150087586A1, “PEGYLATED C-PEPTIDE” (Cebix, Inc., priority 2012, published 2015).

Experiment: Pharmacokinetic study of unmodified C-peptide in beagle dogs, single S.C. dose, plasma ELISA
Assay type: in vivo
Conditions: single S.C. dose 0.5 mg/kg
Protocol: A pharmacokinetic (PK) study was conducted to determine the C-peptide PK profile with unmodified C-peptide in beagle dogs.
Two male and one female dog received S.C. the unmodified synthetic human C-peptide (0.5 mg/kg; 0.025 mL/kg) formulated in phosphate buffered saline (20 mg/mL). Dogs were bled by venipuncture and blood samples were collected at predetermined time points over 14 days. Plasma samples were obtained after centrifugation of the blood (3,000 rpm for 10 minutes) and stored at −80° C. until analysis. A CRO with Good Laboratory Practice (GLP) capabilities (MicroConstants, Inc.; San Diego, Calif.) performed the bioanalytical work. […] Results were expressed as C-peptide concentrations. For the PK analysis, the below quantitation level (BQL) was treated as zero and nominal time points were used for all calculations. PK parameters were determined by standard model independent methods based on the individual plasma concentration-time data for each animal using model 200 in WinNonlin Professional 5.2.1 (Pharsight Corp., Mountain View, Calif.).

CC(C)C[C@H](NC(=O)[C@H](C)NC(=O)[C@H](CC(C)C)NC(=O)[C@@H]1CCCN1C(=O)[C@H](CCC(N)=O)NC(=O)[C@H](CC(C)C)NC(=O)[C@H](CO)NC(=O)CNC(=O)[C@H](C)NC(=O)CNC(=O)[C@@H]1CCCN1C(=O)CNC(=O)CNC(=O)CNC(=O)[C@H](CC(C)C)NC(=O)[C@H](CCC(=O)O)NC(=O)[C@@H](NC(=O)[C@H](CCC(N)=O)NC(=O)CNC(=O)[C@@H](NC(=O)[C@H](CCC(N)=O)NC(=O)[C@H](CC(C)C)NC(=O)[C@H](CC(=O)O)NC(=O)[C@H](CCC(=O)O)NC(=O)[C@H](C)NC(=O)[C@@H](N)CCC(=O)O)C(C)C)C(C)C)C(=O)N[C@@H](CCC(=O)O)C(=O)NCC(=O)N[C@@H](CO)C(=O)N[C@@H](CC(C)C)C(=O)N[C@@H](CCC(N)=O)C(=O)O [CP-AQ]
tolerability (clinical abnormalities) (14 days observation): well tolerated
time until circulating levels of C-peptide were below quantitation level (BQL) (plasma): BQL within half a day
